In general, IC50 refers to the concentration at which inhibition is half-maximal.

Data set [1] is described as follows: Hydrolysis kinetics in human whole blood. The data set is classed as in vitro ADME. As for the experimental part: Kinetic analysis of Fer-Ger was performed by incubating the compound at 37 °C in heparinized whole blood obtained from healthy human volunteers or from male Wistar rats weighing 200–250 g. In particular, appropriate amounts of stock solution in DMSO were added to a volume of 3 mL of whole blood in order to obtain the final concentration of 30 µM (9.92 µg/mL). Samples (100 μL) were withdrawn at defined time intervals and immediately treated. Specifically, they were firstly added to ice-cold water (500 µL); then, sulfosalicylic acid (10%, 50 µL) and the internal standard (100 μM carbazole dissolved in a mixture of MeOH and H2O 50:50 v/v, 50 µL) were added; finally, 1 mL of H2O-saturated ethyl acetate was used twice as extraction solvent. The samples were centrifuged (13,500× g for 10 min) and the organic phase was evaporated under a nitrogen stream. The residue was re-suspended in a mixture of H2O and CH3CN (50:50 v/v, 150 µL) and centrifuged (16,000× g for 5 min). […]
The Fer-Ger degradation in whole blood or homogenates was analyzed as exponential decay plots of its concentrations versus incubation time, and the related half-life values were obtained from the linear regression of the corresponding semi-logarithmic plots. The quality of the fits was evaluated by considering the correlation coefficients (r) and p values. […]
Fer-Ger and its hydrolysis product, Ger, were quantified by HPLC. […]

The nature of data set [2]: Hydrolysis kinetics in rat whole blood. The data set is classed as in vitro ADME. As for the experimental part:
Kinetic analysis of Fer-Ger was performed by incubating the compound at 37 °C in heparinized whole blood obtained from healthy human volunteers or from male Wistar rats weighing 200–250 g. In particular, appropriate amounts of stock solution in DMSO were added to a volume of 3 mL of whole blood in order to obtain the final concentration of 30 µM (9.92 µg/mL). Samples (100 μL) were withdrawn at defined time intervals and immediately treated. Specifically, they were firstly added to ice-cold water (500 µL); then, sulfosalicylic acid (10%, 50 µL) and the internal standard (100 μM carbazole dissolved in a mixture of MeOH and H2O 50:50 v/v, 50 µL) were added; finally, 1 mL of H2O-saturated ethyl acetate was used twice as extraction solvent. The samples were centrifuged (13,500× g for 10 min) and the organic phase was evaporated under a nitrogen stream. The residue was re-suspended in a mixture of H2O and CH3CN (50:50 v/v, 150 µL) and centrifuged (16,000× g for 5 min). […] All the values were derived from the mean of three independent incubation experiments.
The Fer-Ger degradation in whole blood or homogenates was analyzed as exponential decay plots of its concentrations versus incubation time, and the related half-life values were obtained from the linear regression of the corresponding semi-logarithmic plots. The quality of the fits was evaluated by considering the correlation coefficients (r) and p values. The computer program GraphPad Prism 7 (GraphPad, San Diego, CA, USA) allowed to perform the calculations.
Fer-Ger and its hydrolysis product, Ger, were quantified by HPLC. The chromatographic apparatus consisted of a modular system (model LC-40D) pump and DAD detector (model SPD-M40, Shimadzu, Kyoto, Japan) and an injection valve with a 20 μL sample loop (model 7725; Rheodyne, IDEX, Torrance, CA, USA).

Data set [3] concerns neuronal differentiated N2a cells. Kind of data set: MTT assay for evaluation of Fer-Ger toxicity. Format: cell-based, mouse. The settings on record: 1 h exposure. How it is done: N2a cells were seeded on T75 flasks and grown in Dulbecco’s Modified Eagle Medium (DMEM) containing Glutamax, supplemented with 100 μg/mL streptomycin, 100 IU/mL penicillin, and 10% fetal bovine serum (FBS) in a humidified 5% CO2 atmosphere at 37 °C. After two passages by trypsinization, cells were seeded at a density of 5 × 10^3 cells/well in 12-well plates with 2 mL of DMEM or at a density of 5 × 10^2 cells/well in 96-well plates with 0.2 mL of DMEM, depending on the study (see below). […]
The potential neurotoxicity of Fer-Ger in N2a differentiated cells, seeded at a density of 5 × 10^2 cells/well in a 96-well plate as reported above, was assayed with the 3-(4,5-dimethylthiazol-2-yl)-2,5-diphenyltetrazolium (MTT) test after incubation for 1 h at 37 °C in a humidified 5% of CO2 atmosphere at 37 °C with increasing concentrations (1, 5, 10, 40, 70, 100 µM) of Fer-Ger dissolved in 0.2 mL of DPBS, supplemented with 0.9 mM CaCl2, 0.5 mM MgCl2, 5.3 mM glucose, and 0.1% BSA to ensure the solubilization of the compound in aqueous media. […] Finally, the absorbance of each well was measured at 570 nm using a microtiter plate reader (Sunrise® Microplate Reader, Tecan Trading AG, Männedorf, Switzerland). The values were expressed as cell vitality percentages with respect to control in the absence of compounds. […]

Data set [4] shares this test system. Kind of data set: Time-course of uptake in neuronal differentiated N2a cells. Format: cell-based, mouse. How it is done: N2a cells were seeded on T75 flasks and grown in Dulbecco’s Modified Eagle Medium (DMEM) containing Glutamax, supplemented with 100 μg/mL streptomycin, 100 IU/mL penicillin, and 10% fetal bovine serum (FBS) in a humidified 5% CO2 atmosphere at 37 °C. After two passages by trypsinization, cells were seeded at a density of 5 × 10^3 cells/well in 12-well plates with 2 mL of DMEM or at a density of 5 × 10^2 cells/well in 96-well plates with 0.2 mL of DMEM, depending on the study (see below). For neural differentiation, N2a cells were allowed to adhere and proliferate in wells for 4 days; then, after washing once with serum-free DMEM, differentiating medium composed of DMEM containing 1% HS and 20 μM all-trans-retinoic acid (atRA) was added in both the seeding conditions, up to 6 days of differentiation, after which the cells were used for the experiments.
The potential ability of Fer-Ger to enter the neuronal cells of the brain, where it may exert its neuroprotective effects, was evaluated in 9 days-neuronal differentiated N2a cells (5 × 10^3 cells/well in a 12-well plate) at its best non-toxic concentrations of 5 µM and 10 µM in MTT. For their optimal dissolution, 5 µM and 10 µM Fer-Ger solutions in DPBS containing 0.1% BSA were kept for 30 min at 37 °C before the uptake experiment. Each of the 12-well plates was rinsed once with 1 mL of DPBS, and then 1 mL of 5 µM and 10 µM Fer-Ger was added to the test wells, and the plate was incubated for pre-determined interval times (5, 15, 30, and 60 min) in a humidified 5% CO2 atmosphere at 37 °C. The incubation was stopped at each time by taking the incubation DPBS from each well and storing it in Eppendorf tubes. […] The final number of cells was evaluated on untreated wells following their trypsinization and counted using the Scepter^TM 2.0 automated cell counter (Merck Millipore, Milan, Italy). Each reported value represents the mean of four independent incubation experiments.

A short description of data set [5]: In vitro dissolution and release from SLMs. Format: physicochemical. To be noted: within 6 h, DPBS/MeOH 70:30 v/v, 37 °C. How it is done:
Fer-Ger dissolution and release from the SLMs were evaluated by adding raw Fer-Ger (about 0.1 mg) or SLMs, containing an equivalent amount of Fer-Ger, to 60 mL of a mixture of DPBS and methanol (70:30 v/v). The samples were kept under mechanical stirring at 50 rpm and 37 °C. At defined time intervals, 0.2 mL aliquots of the medium were withdrawn and replaced with an equal volume of fresh fluid. The aliquots were filtered (0.45 μm) and injected (10 μL) into the HPLC apparatus for Fer-Ger quantification. The dissolution or release (%) of Fer-Ger was calculated from its total amount incubated as a free compound or contained in the SLMs, respectively. The data were determined from the average of three independent experiments.

For the compound `COc1cc(/C=C/C(=O)OC/C=C(\C)CCC=C(C)C)ccc1O` [Fer-Ger, Geranyl ferulate], the “remaining amount of Fer-Ger” value in data set [1] (after three hours of incubation in human whole blood, % of overall incubated amount) is “about 50%”. Further, the half-life at 30 µM was determined as 3.23 ± 0.349 h in data set [1] (heparinized whole blood, human whole blood, 37 °C, 30 µM, pseudo-first order kinetic, read-out: half-life (t1/2) of hydrolysis) and 0.336 ± 0.0125 h in data set [2] (male, Wistar, heparinized whole blood, rat whole blood, 37 °C, 30 µM, pseudo-first-order kinetic, read-out: half-life (t1/2) of hydrolysis). Also, the “time to almost complete degradation” value in data set [2] (rat whole blood) was at most 2 h. For the same compound, in data set [2] (rat whole blood vs human whole blood), the “hydrolysis rate relative to human whole blood” value is “about 10 times faster”. The “concentration at which neurotoxic effect starts” value in data set [3] (p < 0.05 vs untreated cells) came to 40 µM. Also, the IC50 in data set [3] (Mus musculus, neuronal differentiated N2a cells, read-out: IC50 value of cell viability) is 84.09 ± 0.26 µM. Moreover, the “intracellular concentration (cellular uptake), saturation” value in data set [4] (5 μM Fer-Ger in DPBS, within 60 min, 37 °C) came out at 18.36 ± 2.52 ng/5 × 10^4 cells. Moreover, the “intracellular concentration (cellular uptake)” value in data set [4] (5 μM Fer-Ger in DPBS, within the first 5 min of incubation, 37 °C) is listed as 9.46 ± 0.98 ng/5 × 10^4 cells; in data set [4] (10 μM Fer-Ger in DPBS, within the first 5–15 min of incubation, 37 °C), 36.83 ± 1.65 ng/5 × 10^4 cells. The “intracellular concentration (cellular uptake), steady state” value in data set [4] (10 μM Fer-Ger in DPBS, within 60 min, 37 °C) came out at 46.73 ± 2.25 ng/5 × 10^4 cells. In addition, the “hydrolysis by neuronal cells (Ger detection intra- and extracellular)” value in data set [4] (N2a cells, 5 and 10 μM, up to 60 min) was “not hydrolyzed by neuronal cells”. In data set [5], the “raw powder solubilized (dissolution)” value is on record as “about 30%”.

The record behind these values is publication PMC11172460 (International Journal of Molecular Sciences, 2024).
